Experimental data taken from PubChem BioAssay AID330 (DTP/NCI, 2004).
Several values for one entry are separate records, joined by “and”; a condition that tells them apart may be missing. Equal values may be shown once. Inconclusive results and toxic doses are left out.

Tested on: P388 leukemia ip, CD2F1 mice, survival T/C
Assay: NCI In Vivo Anticancer Drug Screen. Data for tumor model P388 Leukemia (intraperitoneal) in CD2F1 (CDF1) mice
Conditions: endpoint: median survival time, higher = longer survival
Outline: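 Mice carrying the transplanted tumor received test compound or vehicle. Survival was recorded in each group, and the value is the treated-group measurement divided by that of the vehicle-treated control group.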

[1] = dose: 25.0 mg/kg/injection, schedule: Q01DX009 (ip), vehicle: saline
[2] = dose: 50.0 mg/kg/injection, schedule: Q01DX009 (ip), vehicle: saline with Tween-80
[3] = dose: 50.0 mg/kg/injection, schedule: Q01DX009 (ip), vehicle: saline
[4] = dose: 100.0 mg/kg/injection, schedule: Q01DX009 (ip), vehicle: saline
[5] = dose: 60.0 mg/kg/injection, schedule: Q01DX005 (ip), vehicle: saline with Tween-80
[6] = dose: 120.0 mg/kg/injection, schedule: Q01DX005 (ip), vehicle: saline with Tween-80
[7] = dose: 240.0 mg/kg/injection, schedule: Q01DX005 (ip), vehicle: saline with Tween-80
[8] = dose: 100.0 mg/kg/injection, schedule: Q01DX009 (ip), vehicle: saline with Tween-80
[9] = dose: 50.0 mg/kg/injection, schedule: Q01DX005 (ip), vehicle: saline with Tween-80
[10] = dose: 100.0 mg/kg/injection, schedule: Q01DX005 (ip), vehicle: saline with Tween-80
[11] = dose: 200.0 mg/kg/injection, schedule: Q01DX005 (ip), vehicle: saline with Tween-80
[12] = dose: 200.0 mg/kg/injection, schedule: Q01DX009 (ip), vehicle: saline with Tween-80
[13] = dose: 25.0 mg/kg/injection, schedule: Q01DX009 (ip), vehicle: other
[14] = dose: 50.0 mg/kg/injection, schedule: Q01DX009 (ip), vehicle: other
[15] = dose: 100.0 mg/kg/injection, schedule: Q01DX009 (ip), vehicle: other
[16] = dose: 200.0 mg/kg/injection, schedule: Q04DX003 (ip), vehicle: saline with Tween-80

CCC(C(=O)O)C(=O)O.[NH-]CC1CCCC[N-]1.[Pt+2]
T/C (dose: 25.0 mg/kg/injection, schedule: Q01DX005 (ip), vehicle: saline): 161 % of control
T/C [1]: 161 % of control
T/C (dose: 50.0 mg/kg/injection, schedule: Q01DX005 (ip), vehicle: saline): 217 % of control
T/C [2]: 202 % of control
T/C [3]: 189 % of control
T/C (dose: 100.0 mg/kg/injection, schedule: Q01DX005 (ip), vehicle: saline): 243 % of control and 267 % of control
T/C [4]: 252 % of control
T/C (dose: 125.0 mg/kg/injection, schedule: Q01DX001 (ip), vehicle: saline): 161 % of control
T/C (dose: 250.0 mg/kg/injection, schedule: Q01DX001 (ip), vehicle: saline): 191 % of control
T/C (dose: 500.0 mg/kg/injection, schedule: Q01DX001 (ip), vehicle: saline): 173 % of control and 198 % of control

C[N+]1(CSc2ccccc2)CCCCC1
T/C (dose: 12.5 mg/kg/injection, schedule: Q01DX009 (ip), vehicle: saline with Tween-80): 100 % of control
T/C (dose: 25.0 mg/kg/injection, schedule: Q01DX009 (ip), vehicle: saline with Tween-80): 98 % of control

CCOC(=O)c1cc2ccccc2c(-c2ccccc2)c1C(=O)OCC
T/C (dose: 100.0 mg/kg/injection, schedule: Q01DX001 (ip), vehicle: saline with Tween-80): 97 % of control
T/C (dose: 200.0 mg/kg/injection, schedule: Q01DX001 (ip), vehicle: saline with Tween-80): 96 % of control
T/C (dose: 400.0 mg/kg/injection, schedule: Q01DX001 (ip), vehicle: saline with Tween-80): 90 % of control

CCOC(=O)c1c(C)c2c(n1C)CCC(C(=O)OCC)C2=O (stereo not drawn)
T/C (dose: 50.0 mg/kg/injection, schedule: Q04DX003 (ip), vehicle: Klucel (hydroxypropylcellulose) (HPC)): 107 % of control
T/C (dose: 100.0 mg/kg/injection, schedule: Q04DX003 (ip), vehicle: Klucel (hydroxypropylcellulose) (HPC)): 100 % of control
T/C (dose: 200.0 mg/kg/injection, schedule: Q04DX003 (ip), vehicle: Klucel (hydroxypropylcellulose) (HPC)): 91 % of control

COc1ccccc1/C(C)=N/O
T/C [5]: 100 % of control
T/C [6]: 95 % of control
T/C [7]: 103 % of control

COC1=CC(=O)c2c(O)cc(OC)cc2C1=O
T/C (dose: 1.25 mg/kg/injection, schedule: Q01DX009 (ip), vehicle: saline with Tween-80): 106 % of control and 116 % of control
T/C (dose: 2.5 mg/kg/injection, schedule: Q01DX009 (ip), vehicle: saline with Tween-80): 101 % of control and 108 % of control
T/C (dose: 5.0 mg/kg/injection, schedule: Q01DX009 (ip), vehicle: saline with Tween-80): 100 % of control and 114 % of control
T/C (dose: 10.0 mg/kg/injection, schedule: Q01DX009 (ip), vehicle: saline with Tween-80): 100 % of control and 92 % of control
T/C (dose: 20.0 mg/kg/injection, schedule: Q01DX009 (ip), vehicle: saline with Tween-80): 107 % of control and 92 % of control

OCCCN(CCCO)CCN(CCCO)CCCO
T/C (dose: 100.0 mg/kg/injection, schedule: Q04DX003 (ip), vehicle: saline): 97 % of control
T/C (dose: 200.0 mg/kg/injection, schedule: Q04DX003 (ip), vehicle: saline): 97 % of control
T/C (dose: 400.0 mg/kg/injection, schedule: Q04DX003 (ip), vehicle: saline): 87 % of control

CC1C(N)CC2CC1C2(C)C (stereo not drawn)
T/C [2]: 104 % of control
T/C [8]: 112 % of control

COc1cc(CC2COC(=O)C2(O)Cc2ccc(O)c(OC)c2)ccc1O (stereo not drawn)
T/C [9]: 98 % of control
T/C [10]: 95 % of control
T/C [11]: 100 % of control

O=C1NC2C3CC(c4ccccc43)C12 (stereo not drawn)
T/C [5]: 105 % of control
T/C [6]: 109 % of control
T/C [7]: 108 % of control

CCCC(=O)C#C[Si](C)(C)C
T/C [9]: 103 % of control
T/C [10]: 103 % of control

CC(=O)CC(=O)CCCCCCC(=O)O
T/C [2]: 103 % of control
T/C [8]: 100 % of control
T/C [12]: 100 % of control

COC(=O)C1=C(C(=O)OC)C(c2ccccc2)N(C)O1 (stereo not drawn)
T/C [9]: 103 % of control
T/C [10]: 98 % of control
T/C [11]: 106 % of control

Nc1ccc2[nH]c3cnccc3c2c1
T/C (dose: 12.5 mg/kg/injection, schedule: Q01DX009 (ip), vehicle: other): 103 % of control
T/C [13]: 108 % of control
T/C [14]: 103 % of control
T/C [15]: 103 % of control

O=C(CCl)N/N=C(\c1ccccc1)c1ccc(Br)cc1
T/C (dose: 45.0 mg/kg/injection, schedule: Q01DX009 (ip), vehicle: saline with Tween-80): 103 % of control
T/C (dose: 90.0 mg/kg/injection, schedule: Q01DX009 (ip), vehicle: saline with Tween-80): 98 % of control
T/C (dose: 180.0 mg/kg/injection, schedule: Q01DX009 (ip), vehicle: saline with Tween-80): 97 % of control

CC1=CCC2C3(C)C=CC(=O)C(C)(C)C3CC3OC(=O)C=C1C32C (stereo not drawn)
T/C (dose: 0.75 mg/kg/injection, schedule: Q01DX009 (ip), vehicle: Klucel (hydroxypropylcellulose) (HPC)): 102 % of control
T/C (dose: 1.5 mg/kg/injection, schedule: Q01DX009 (ip), vehicle: Klucel (hydroxypropylcellulose) (HPC)): 98 % of control and 102 % of control
T/C (dose: 3.0 mg/kg/injection, schedule: Q01DX009 (ip), vehicle: Klucel (hydroxypropylcellulose) (HPC)): 101 % of control
T/C (dose: 6.0 mg/kg/injection, schedule: Q01DX009 (ip), vehicle: Klucel (hydroxypropylcellulose) (HPC)): 97 % of control
T/C (dose: 12.0 mg/kg/injection, schedule: Q01DX009 (ip), vehicle: Klucel (hydroxypropylcellulose) (HPC)): 100 % of control and 97 % of control
T/C (dose: 24.0 mg/kg/injection, schedule: Q01DX009 (ip), vehicle: Klucel (hydroxypropylcellulose) (HPC)): 100 % of control

CN(C)CCCNCCCCNCCCN(C)C
T/C [2]: 105 % of control
T/C [8]: 110 % of control
T/C [12]: 110 % of control

CCN(CC)CC(C)Nc1ccc([N+](=O)[O-])c2sc3ccccc3c(=O)c12 (stereo not drawn)
T/C (dose: 6.25 mg/kg/injection, schedule: Q01DX009 (ip), vehicle: saline): 113 % of control
T/C (dose: 12.5 mg/kg/injection, schedule: Q04DX003 (ip), vehicle: saline with Tween-80): 115 % of control
T/C (dose: 25.0 mg/kg/injection, schedule: Q04DX003 (ip), vehicle: saline with Tween-80): 120 % of control
T/C [2]: 172 % of control
T/C [3]: 186 % of control
T/C (dose: 132.0 mg/kg/injection, schedule: Q04DX003 (ip), vehicle: saline with Tween-80): 163 % of control
T/C [16]: 154 % of control

Nc1nc(N)c2nc(SCc3ccc(Cl)cc3)c(N)nc2n1
T/C (dose: 15.0 mg/kg/injection, schedule: Q01DX005 (ip), vehicle: Klucel (hydroxypropylcellulose) (HPC)): 88 % of control
T/C (dose: 30.0 mg/kg/injection, schedule: Q01DX005 (ip), vehicle: Klucel (hydroxypropylcellulose) (HPC)): 88 % of control
T/C (dose: 60.0 mg/kg/injection, schedule: Q01DX005 (ip), vehicle: Klucel (hydroxypropylcellulose) (HPC)): 103 % of control
T/C (dose: 120.0 mg/kg/injection, schedule: Q01DX005 (ip), vehicle: Klucel (hydroxypropylcellulose) (HPC)): 88 % of control
T/C (dose: 240.0 mg/kg/injection, schedule: Q01DX005 (ip), vehicle: Klucel (hydroxypropylcellulose) (HPC)): 94 % of control

CN(C)c1ccc2c(c1)Cc1cc(N=C3C=CC(=O)O3)ccc1-2
T/C [2]: 100 % of control
T/C [8]: 100 % of control
T/C (dose: 100.0 mg/kg/injection, schedule: Q04DX003 (ip), vehicle: saline with Tween-80): 109 % of control
T/C [12]: 100 % of control
T/C [16]: 95 % of control

O=[N+]([O-])c1nccn1CC(O)CO (stereo not drawn)
T/C (dose: 12.5 mg/kg/injection, schedule: Q01DX009 (ip), vehicle: saline): 103 % of control and 116 % of control
T/C [1]: 101 % of control and 121 % of control
T/C [3]: 103 % of control and 116 % of control and 98 % of control
T/C [4]: 102 % of control and 106 % of control and 116 % of control
T/C (dose: 200.0 mg/kg/injection, schedule: Q01DX009 (ip), vehicle: saline): 104 % of control and 107 % of control and 121 % of control
T/C (dose: 360.0 mg/kg/injection, schedule: Q01DX001 (ip), vehicle: saline): 101 % of control and 102 % of control
T/C (dose: 400.0 mg/kg/injection, schedule: Q01DX009 (ip), vehicle: saline): 102 % of control and 106 % of control
T/C (dose: 600.0 mg/kg/injection, schedule: Q01DX001 (ip), vehicle: saline): 100 % of control and 102 % of control
T/C (dose: 1000.0 mg/kg/injection, schedule: Q01DX001 (ip), vehicle: saline): 101 % of control and 104 % of control

OC1CSCc2ccccc21 (stereo not drawn)
T/C [13]: 109 % of control
T/C [14]: 102 % of control
T/C [15]: 109 % of control
T/C (dose: 200.0 mg/kg/injection, schedule: Q01DX009 (ip), vehicle: other): 108 % of control

CCOC(=O)c1cc(/C=C/c2ccc(Cl)cc2Cl)on1
T/C [5]: 100 % of control
T/C [6]: 90 % of control
